Assay results reported in patent US4351949A, “Bicyclic prostaglandin analogs and method of synthesis” (Iowa State University Research Foundation, Inc., priority 1981, dated 1982).
Values after ≈ are worked out from the molar mass of the structure shown. Like-named read-outs stand apart in the source and are kept apart here.

Key:
[1] = test system: experimental thrombosis; settings: cited from earlier work; for inhibition of laser-induced thrombosis by potent inhibitors of platelet aggregation: rabbit ear chamber, general statement on the model
[2] = test system: arachidonic acid induced platelet aggregation; experiment: in vitro arachidonic acid induced blood platelet aggregation; assay type: cell-based
Procedure: The compounds of Examples 1 through 11 were tested against arachidonic acid induced platelet aggregation.

[3] = test system: experimental thrombosis; experiment: in vivo biolaser model of experimental thrombosis (rabbit ear chamber); settings: combined with anagrelide at a lower than threshold level
Description: These compounds were studied in vivo in an animal model for experimental thrombosis. The use of this model is described in detail in the reprint, Use of the Biolaser in the Evaluation of Anti-Thrombotic Agents, J. S. Fleming et al. "Platelets and Thrombosis", eds. S. Sherry and A. Scriabrine, University Park Press, 1974, Baltimore, which is incorporated herein by reference.
In brief, a micro-injury is created by a laser beam focused through a microscope onto the endothelium surface of a small blood vessel in a surgically implanted ear chamber of a rabbit. The injury induces the rapid formation of a platelet thrombis which can be measured. […] Prostacyclin is active in the biolaser model when infused intraveneously. The results of these tests preliminarily indicate that there is a super additive interaction between anagrelide and the compounds of this invention. […] To date, no other compounds have undergone significant in vivo analysis in the rabbit ear test.

[4] = concentration of agent necessary to reduce by 50% the in vitro blood platelet aggregation caused by addition of arachidonic acid, read-out: EC 50 vs Arachidonic Acid
[5] = Platelet, for comparison, vs arachidonic acid, read-out: EC 50 of comparison compounds

| SMILES | EC50 [2, 4] | further results |
| --- | --- | --- |
| O=C1CN2Cc3c(ccc(Cl)c3Cl)N=C2N1 [anagrelide] | – | inhibition of laser-induced thrombosis by potent inhibitors of platelet aggregation [1]: significant inhibition |
| CCCCCC(O)C#CC1C2CCC(C2)C1C/C=C/CCCCCCCC(=O)O (stereo not drawn) [Example 3] | 1 µg/mL (≈ 2.48 µM) | – |
| CCCCCC(O)C#CC1C2C=CC(C2)C1C/C=C/CCCC(=O)OC (stereo not drawn) [Example 7] | 3.6 µg/mL (≈ 10 µM) | – |
| CCCCC[C@H](O)/C=C/[C@@H]1[C@H]2C/C(=C/CCCC(=O)O)O[C@H]2C[C@H]1O [prostacyclin] | – | EC50 [2, 5]: 0.004 µg/mL (≈ 0.0113 µM); activity in the biolaser model ([1]; infused intravenously, rabbit): active; inhibition of laser-induced thrombosis by potent inhibitors of platelet aggregation [1]: significant inhibition |
| CCCCC[C@H](O)/C=C/[C@H]1[C@H](O)CC(=O)[C@@H]1CCCCCCC(=O)O [PGE1, reference compound] | – | EC50 [2, 5]: 0.018 µg/mL (≈ 0.0508 µM) |

The next lines start with results.

| EC50 [2, 4] | SMILES | further results |
| --- | --- | --- |
| 0.4 µg/mL (≈ 0.96 µM) | CCCCCC(O)C#CC1C2CCC(C2)C1C/C=C/CCCCCCCC(=O)OC (stereo not drawn) [Example 4] | – |
| 8 µg/mL (≈ 25.1 µM) | CCCCCC(O)C#CC1C2CCC(C2)C1C/C=C/C(=O)OC (stereo not drawn) [Example 6] | – |
| 3.6 µg/mL (≈ 10.8 µM) | CCCCCC(O)C#CC1C2CCC(C2)C1C/C=C/CCCCO (stereo not drawn) [Example 9] | – |
| 4 µg/mL (≈ 13.1 µM) | CCCCCC(O)C#CC1C2CCC(C2)C1C/C=C/C(=O)O (stereo not drawn) [Example 5] | – |
| 0.045 µg/mL (≈ 0.13 µM) | CCCCCC(O)C#CC1C2CCC(C2)C1C/C=C/CCCC(=O)O (stereo not drawn) [Example 1] | – |
| 5.8 µg/mL (≈ 15.5 µM) | CCCCCC(O)C#CC1C2CCC(CC2)C1C/C=C/CCCC(=O)OC (stereo not drawn) [Example 8] | – |
| 0.07 µg/mL (≈ 0.194 µM) | CCCCCC(O)C#CC1C2CCC(C2)C1C/C=C/CCCC(=O)OC (stereo not drawn) [Example 2] | reduction in thrombosis in combination with anagrelide [3]: substantial reduction in thrombosis |
